Measured values: ChEMBL document CHEMBL1131237 (J Med Chem, 1998)
Where “and” joins values, the source holds several entries; their conditions need not be identical. Identical values can stand only once.

Key:
[1] = biological target: T1, Sodium-dependent dopamine transporter (Rattus norvegicus, UniProt P23977); assay: Ability to displace [3H]WIN-35428 binding to dopamine transporter from rat striatal membranes
[2] = biological target: T1, Sodium-dependent dopamine transporter; assay: Inhibition of high-affinity uptake of [3H]dopamine at dopamine transporter into rat striatal nerve endings (synaptosomes); format: subcellular, Brain
[3] = biological target: Sodium-dependent dopamine transporter (Rattus norvegicus) (UniProt P23977); assay: Hill coefficient was determined
Sodium-dependent dopamine transporter (Rattus norvegicus), sequence (P23977 whole entry): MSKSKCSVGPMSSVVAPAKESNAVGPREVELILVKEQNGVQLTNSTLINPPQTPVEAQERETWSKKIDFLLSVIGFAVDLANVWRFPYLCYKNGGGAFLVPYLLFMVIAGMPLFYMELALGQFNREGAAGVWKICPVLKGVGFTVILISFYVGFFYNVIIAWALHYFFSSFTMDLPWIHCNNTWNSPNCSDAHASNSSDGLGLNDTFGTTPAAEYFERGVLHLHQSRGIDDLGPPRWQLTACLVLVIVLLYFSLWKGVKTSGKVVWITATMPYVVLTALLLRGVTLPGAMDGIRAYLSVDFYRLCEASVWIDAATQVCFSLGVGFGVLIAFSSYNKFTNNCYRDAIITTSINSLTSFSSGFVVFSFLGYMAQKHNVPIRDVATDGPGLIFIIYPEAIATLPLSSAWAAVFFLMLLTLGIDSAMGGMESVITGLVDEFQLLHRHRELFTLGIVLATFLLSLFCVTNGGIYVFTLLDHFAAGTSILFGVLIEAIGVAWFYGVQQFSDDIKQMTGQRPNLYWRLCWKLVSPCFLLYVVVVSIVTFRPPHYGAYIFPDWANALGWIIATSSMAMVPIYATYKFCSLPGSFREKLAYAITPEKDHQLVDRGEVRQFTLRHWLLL

[4] = biological target: Sodium-dependent dopamine transporter (Rattus norvegicus) (UniProt P23977)

T1 sequence (P23977 whole entry): as above

Question: `COC(=O)[C@H]1CN(C)CC[C@H]1c1ccc(Cl)cc1` was tested. Which IC50 [1] did it give?
Answer: 653 nM

Question: What about the IC50 [2] of the same compound?
Answer: 195 nM

Question: What about the Hill coefficient [3] of the same compound?
Answer: 0.96 and 1.08

Question: `CN1CC[C@@H](c2ccc(Cl)cc2)C(CO)C1` (stereo partly specified) was tested. Which IC50 [1] did it give?
Answer: 442 nM

Question: What about the Hill coefficient [4] of the same compound?
Answer: 0.66

Question: How did the IC50 [1] turn out when `CC(=O)OCC1CN(C)CC[C@H]1c1ccc(Cl)cc1` (stereo partly specified) was run?
Answer: 928 nM

Question: What about the Hill coefficient [4] of the same compound?
Answer: 0.89 and 1.07

Question: What about the IC50 [2] of the same compound?
Answer: 2020 nM

Question: What does the source list for `COC(=O)C1CN(C)CC[C@@H]1c1ccccc1` (stereo partly specified)?
Answer: IC50 [1]: 769 nM; Hill coefficient [3]: 1.02

Question: `CC(=O)OC[C@@H]1CN(C)CC[C@@H]1c1ccc(Cl)cc1` was tested. Which Hill coefficient [4] did it give?
Answer: 0.66 and 1.03

Question: For `CCC[C@@H]1CN(C)CC[C@@H]1c1ccc(Cl)cc1`, which Hill coefficient [3] is on record?
Answer: 0.64 and 1.04

Question: Which Hill coefficient [4] does the source give for `COC(=O)[C@@H]1CN(C)CC[C@@H]1c1ccc(Cl)cc1` here?
Answer: 0.78 and 0.94

Question: For `COC(=O)[C@H]1CN(C)CC[C@@H]1c1ccc(Cl)cc1` (racemic), which IC50 [1] is on record?
Answer: 197 nM

Question: What about the Hill coefficient [4] of the same compound?
Answer: 0.91

Question: `COC(=O)[C@@H]1CN(C)CC[C@@H]1c1ccc(Cl)cc1` (racemic) was tested. Which Hill coefficient [4] did it give?
Answer: 0.91 and 1.04

Question: Which IC50 [1] does the source give for `CC(=O)OCC1CN(C)CC[C@@H]1c1ccc(Cl)cc1` (single isomer, unassigned) here?
Answer: 461 nM

Question: What about the Hill coefficient [4] of the same compound?
Answer: 0.76

Question: What does the source list for `CCCC1CN(C)CC[C@@H]1c1ccc(Cl)cc1` (single isomer, unassigned)?
Answer: IC50 [1]: 17.2 nM; IC50 [2]: 23.2 nM; Hill coefficient [3]: 0.85 and 1.03

Question: How did the IC50 [2] turn out when `COC(=O)C1CN(C)CC[C@H]1c1ccc(Cl)cc1` (single isomer, unassigned) was run?
Answer: 5090 nM

Question: What about the Hill coefficient [3] of the same compound?
Answer: 0.81 and 0.95

Question: How did the Hill coefficient [4] turn out when `COC(=O)C1CN(C)CC[C@@H]1c1ccc(Cl)cc1` (single isomer, unassigned) was run?
Answer: 0.78 and 0.97

Question: How did the Hill coefficient [4] turn out when `COC(=O)[C@H]1[C@@H](OC(=O)c2ccccc2)CC2CC[C@H]1N2C` (single isomer, unassigned) was run?
Answer: 0.87 and 1.06

Question: Which IC50 [1] does the source give for `CN1CC[C@H](c2ccc(Cl)cc2)C(CO)C1` (single isomer, unassigned; (+)-13) [listing 1 of 2 here] here?
Answer: 240 nM

Question: What about the IC50 [2] of the same compound?
Answer: 683 nM

Question: With `CN1CC[C@H](c2ccc(Cl)cc2)C(CO)C1` (single isomer, unassigned; (+)-13) [listing 2 of 2 here] as the compound, how does the Hill coefficient [4] read?
Answer: 0.85 and 1.09

Question: Which results are given for `CN1CC[C@H](c2ccc(Cl)cc2)C(CO)C1` (single isomer, unassigned; (-)-5) [listing 1 of 2 here]?
Answer: IC50 [1]: 75.3 nM; IC50 [2]: 49 nM

Question: With `CN1CC[C@H](c2ccc(Cl)cc2)C(CO)C1` (single isomer, unassigned; (-)-5) [listing 2 of 2 here] as the compound, how does the Hill coefficient [4] read?
Answer: 0.56 and 1.04
